What was measured:
[1] = tested on: MaTu/Adr cells; assay: Model 3: Proliferation of non-prostate cells, MaTu/Adr; type: cell-based, human; details: 10 μM, 3-day treatment, percent of cell growth of solvent control
Protocol: (§1) To examine the growth-inhibiting action of test substances in cells that are not of prostatic origin, MaTu cells, MaTu/Adr cells, HaCaT cells and A431 cells were treated with test substances, whereby
(§2) Depending on the cell line, 1000-4000 cells/well were grown in RPMI 1640 medium (A431; MaTu and MaTu/Adr) or DMEM/HAM'SF12 medium (HaCaT) without phenol red with 2 mmol of L-glutamine and 10% CCS, and after a 24-hour incubation, they were treated with various concentrations of test substances diluted in culture medium. After a 3-day treatment period, the number of cells was determined by crystal violet assay, as in Model 2. The solvent control contained 0.1% ethanol.
(§3) The substances were tested at a concentration of 10 μM, and the data correspond to the proportion, in percent, of the cell growth of the solvent control. It turns out that the test substances exerted no inhibitory action on the four different cell lines or, in individual cases, only a slight inhibitory action.

[2] = tested on: HaCaT cells; assay: Model 3: Proliferation of non-prostate cells, HaCaT; type: cell-based, human; details: 10 μM, 3-day treatment, percent of cell growth of solvent control
Protocol: as §1, §2, §3

[3] = biological target: T1, androgen receptor (Homo sapiens, UniProt P10275, T878A); assay: cell-based; details: LNCaP, 48 h; for remaining activity at 10 µM: read-out: AR Content [%] At 10 μM; for remaining activity at 1 µM: read-out: AR Content [%] At 1 μM
T1 construct: 2*10^6 LNCaP cells in 6 ml of RPMI 1640 without phenol red are grown; endogenous in cells; host or cells: LNCaP (human prostate cell line)
T1 sequence (P10275 1-920 T878A): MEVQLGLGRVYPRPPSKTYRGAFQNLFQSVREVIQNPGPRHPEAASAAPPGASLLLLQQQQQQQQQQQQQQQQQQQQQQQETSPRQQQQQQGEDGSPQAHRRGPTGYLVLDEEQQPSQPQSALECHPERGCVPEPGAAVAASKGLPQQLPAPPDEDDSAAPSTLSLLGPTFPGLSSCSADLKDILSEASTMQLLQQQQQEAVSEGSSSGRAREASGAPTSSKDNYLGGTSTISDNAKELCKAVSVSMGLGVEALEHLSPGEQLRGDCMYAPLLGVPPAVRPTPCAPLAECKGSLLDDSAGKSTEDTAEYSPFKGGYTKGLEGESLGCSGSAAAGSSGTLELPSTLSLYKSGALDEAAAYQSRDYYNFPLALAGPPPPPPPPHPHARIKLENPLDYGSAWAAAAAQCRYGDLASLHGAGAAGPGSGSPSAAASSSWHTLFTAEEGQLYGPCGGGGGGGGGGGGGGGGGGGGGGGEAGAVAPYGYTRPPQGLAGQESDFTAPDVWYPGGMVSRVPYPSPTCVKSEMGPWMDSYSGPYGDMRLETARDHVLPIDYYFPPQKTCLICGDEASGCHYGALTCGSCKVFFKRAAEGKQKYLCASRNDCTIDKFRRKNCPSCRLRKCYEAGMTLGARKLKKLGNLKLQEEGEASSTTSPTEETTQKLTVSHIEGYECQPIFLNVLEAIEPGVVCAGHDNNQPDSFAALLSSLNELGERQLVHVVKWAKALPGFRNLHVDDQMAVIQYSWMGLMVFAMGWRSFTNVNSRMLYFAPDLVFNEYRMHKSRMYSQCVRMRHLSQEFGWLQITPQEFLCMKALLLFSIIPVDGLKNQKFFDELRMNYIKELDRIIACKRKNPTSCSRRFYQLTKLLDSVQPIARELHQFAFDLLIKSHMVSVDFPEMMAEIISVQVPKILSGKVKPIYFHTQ

[4] = tested on: MaTu cells; assay: Model 3: Proliferation of non-prostate cells, MaTu; type: cell-based, human; details: 10 μM, 3-day treatment; percent of cell growth of solvent control
Protocol: as §1, §2, §3

[5] = tested on: A431 cells; assay: Model 3: Proliferation of non-prostate cells, A431; type: cell-based, human; details: 10 μM, 3-day treatment, percent of cell growth of solvent control
Protocol: as §1, §2, §3

[6] = tested on: LNCaP cells; assay: Model 2: Inhibition of the proliferation of LNCaP cells (crystal violet assay; antagonism with 0.1 nM R1881, agonism without); type: cell-based, human; details: for IC50: LNCaP proliferation in the presence of 0.1 nM R1881, 7-8 days, read-out: IC50 [10^−7 M]
[7] = tested on: LNCaP prostate cancers; assay: Model 5: Growth of human prostate cancer xenografts in vivo, LNCaP; details: hairless mice with testosterone pellets, 2 × daily s.c. 30 mg/kg, FIG. 1
From the text: (§4) In this invention, the action of Example 117 according to the invention: 4-[2,5-dihydro-3-methyl-4-[4-[4-(methylsulfonyl)piperazin-1-yl]butyl]-2,5-dioxo-1H-pyrrol-1-yl]-2-(trifluoromethyl)benzonitrile on the tumor growth in vivo was studied by means of mouse-xenograft modules, in which the compound according to the invention was continuously administered subcutaneously.
(§5) The CWR22 tumor model [M. A. Wainstein, F. He, D. Robinson, H. J. Kung, S. Schwartz, J. M. Giaconia, N. L. Edgehouse, T. P. Pretlow, D. R. Bodner, E. D. Kursh, Cancer Res. 1994, 1; 54(23), 6049-52] is a hormone-dependent human prostate carcinoma model. The tumor model was established and further propagated by “scrial passaging” of prostate cancer tissue, which was removed during an OP in immunodeficient hairless mice. The androgen-dependent LNCaP prostate cancer model was also established from a patient tumor. This tumor model grows both in cell culture and as a xenotransplant on immunodeficient mice (Culig, Hoffman Brit. J. Cancer, 1999, 242-251). For therapy tests, 6-week-old male hairless mice (NMRI mice, M&B, Bornholdtgard, Denmark) were supplemented with testosterone pellets (12.5 mg, 90-day release; IRA, Sarasota, Fla.). Either LNCaP cells (1.5×10^6 cells) or small CWR22 tumor fragments (2×2 mm) were implanted subcutaneously in the left flank of the animals. After the tumors reached a size of 20-25 mm^2, the treatment with the invention substance was begun. [M. A. Wainstein, F. He, D. Robinson, H. J. Kung, S. Schwartz, J. M. Giaconia, N. L. Edgehouse, T. P. Pretlow, D. R. Bodner, E. D. Kursch, Cancer Res. 1994, 1; 54(23), 6049-52].

[8] = tested on: CWR22 prostate cancers; assay: Model 5: Growth of human prostate cancer xenografts in vivo, CWR22; details: hairless mice with testosterone pellets, 2 × daily s.c. 30 mg/kg, FIG. 2
From the text: as §4, §5

[9] = tested on: seminal vesicles; assay: Model 4: Antiandrogenic action on testosterone-stimulated growth of accessory sexual glands of castrated mice; type: in vivo; details: testosterone propionate 0.03 mg/mouse, test substance 2 × 30 mg/kg s.c., 7 days, CPA 30 mg/kg s.c., bicalutamide from preceding tests
Protocol: The function and the size of accessory sexual glands (prostate and seminal vesicles) depend on androgens. In castrated animals, a growth of these (organs is induced by androgen administration. The simultaneous treatment with antiandrogens inhibits this growth, depending on the dose.
To examine the test substances, the mice were castrated. The treatment with testosterone propionate (0.03 mg/mouse) and the test substances (formulated 2×daily 30 mg/kg s.c. in benzyl benzoate-castor oil (10:90)) was on the same day. The treatment was carried out over 7 days and at the end of the test, the weights of the seminal vesicles and prostates were determined. The inhibition, in percent, of the seminal vesicle growth was calculated relative to the control groups (with and without testosterone). As a reference substance, cyproterone acetate (30 mg/kg s.c.) was used.

[10] = listed as invention substance, 30 mg/kg
[11] = listed as substance B, 30 mg/kg

Structure (SMILES) | Proliferation in the Cell Line MaTu/Adr [1] | Proliferation in the Cell Line HaCaT [2] | remaining activity at 10 µM [3] | Proliferation in the Cell Line MaTu [4] | Proliferation in the Cell Line A431 [5] | IC50 ([6]; Homo sapiens) | growth inhibition of LNCaP prostate cancers [7, 10] | growth inhibition of LNCaP prostate cancers [7, 11] | growth inhibition of CWR22 prostate cancers [8, 10] | growth inhibition of CWR22 prostate cancers [8, 11] | remaining activity at 1 µM [3] | growth inhibition of LNCaP prostate cancers [7] | Proliferation in the Cell Line MaTu/Adr ([1]; listed as bicalutamide) | growth inhibition of CWR22 prostate cancers [8] | Proliferation in the Cell Line HaCaT ([2]; listed as bicalutamide) | % Inhibition of the MSB Growth [9] | Proliferation in the Cell Line A431 ([5]; listed as bicalutamide) | inhibition at 1 µM ([6]; Homo sapiens, LNCaP, LNCaP proliferation, 1 μM substance, compared to cell growth in the presence of 0.1 nM R1881) | % Inhibition at 1 μM ([6]; LNCaP proliferation, 1 μM substance, compared to cell growth in the presence of 0.1 nM R1881)
CC1=C(CCCCCCN2CCN(C(=O)Nc3ccccc3)CC2)C(=O)N(c2ccc(C#N)c(C(F)(F)F)c2)C1=O [Example 315, 4-[6-[1-[4-Cyano-3-(trifluoromethyl)phenyl]-2,5-dihydro-4-methyl-2,5-dioxo-1H-pyrrol-3-yl]hexyl]-N-phenylpiperazine-1-carboxamide] | 90 +/− 10% | 102 +/− 6% | 52% | 95 +/− 7% | 95 +/− 5% | 380 nM | – | – | – | – | – | – | – | – | – | – | – | – | –
CC1=C(CCCCN2CCN(S(C)(=O)=O)CC2)C(=O)N(c2ccc(C#N)c(C(F)(F)F)c2)C1=O [Example 117, 4-[2,5-Dihydro-3-methyl-4-[4-[4-(methylsulfonyl)piperazin-1-yl]butyl]-2,5-dioxo-1H-pyrrol-1-yl]-2-(trifluoromethyl)benzonitrile] | 94 ± 4% | 104 ± 6% | 36% | 103 ± 10% | 100 ± 5% | – | considerable growth inhibition | superior in comparison to treatment with the antiandrogen bicalutamide | considerable growth inhibition | superior in comparison to treatment with the antiandrogen bicalutamide | 57% | – | – | – | – | – | – | – | –
CC1=C(CCCCN2CCN(C(=O)c3ccccc3Cl)CC2)C(=O)N(c2ccc(C#N)c(C(F)(F)F)c2)C1=O [Example 90, 4-[3-[4-[4-(2-Chlorobenzoyl)piperazin-1-yl]butyl]-2,5-dihydro-4-methyl-2,5-dioxo-1H-pyrrol-1-yl]-2-(trifluoromethyl)benzonitrile] | 80 +/− 2% | 102 +/− 12% | 34% | 96 +/− 3% | 98 +/− 7% | – | – | – | – | – | – | – | – | – | – | – | – | – | –
COc1ccccc1C(=O)N1CCN(CCCCCCC2=C(C)C(=O)N(c3ccc(C#N)c(C(F)(F)F)c3)C2=O)CC1 [Example 248, 4-[2,5-Dihydro-3-[6-[4-(2-methoxybenzoyl)piperazin-1-yl]hexyl]-4-methyl-2,5-dioxo-1H-pyrrol-1-yl]-2-(trifluoromethyl)benzonitrile] | 88 +/− 4% | 104 +/− 7% | 22% | 98 +/− 4% | 102 +/− 5% | 250 nM | – | – | – | – | 51% | – | – | – | – | – | – | – | –
CC(O)(CS(=O)(=O)c1ccc(F)cc1)C(=O)Nc1ccc(C#N)c(C(F)(F)F)c1 (centres unmarked) [Bicalutamide, N-[4-cyano-3-(trifluoromethyl)phenyl]-3-[(4-fluorophenyl)sulfonyl]-2-hydroxy-2-methylpropanamide, reference compound] | 84 ± 6% | 92 ± 3% | – | 97 ± 3% | 89 ± 7% | 380 nM | – | – | – | – | – | growth inhibition | slight inhibition | growth inhibition | slight inhibition | 86% | slight inhibition | 85% | 84.6%

Reference: patent US6861432B2, “Piperazine derivatives that destabilize androgen receptors” (Schering Aktiengesellschaft, priority 2001, dated 2005)
